Assay results from patent publication US20230017045A1, “PYRIDINE AND PYRIMIDINE CARBOXYLATE HERBICIDES AND METHODS OF USE THEREOF” (Dow AgroSciences LLC, priority 2017, published 2023).
Where two headings read alike, the source gives them in different places.

System: test plant species
Assay: Post-emergent herbicidal activity test (greenhouse, foliar spray, visual growth reduction)
Format: in vivo
Details: post-emergence, 336 h, 140 g ai/ha
Protocol: Post-emergent Test: Seeds or nutlets of the desired test plant species were planted in Sun Gro Metro-Mix® 360 planting mixture, which typically has a pH of 6.0 to 6.8 and an organic matter content of about 30 percent, in plastic pots with a surface area of 64 square centimeters. In some aspects, to ensure good germination and healthy plants, a fungicide treatment and/or other chemical or physical treatment was applied. The plants were grown for 7-21 d in a greenhouse with an approximate 15 h photoperiod which was maintained at 23-29° C. during the day and 22-28° C. during the night. Nutrients and water were added on a regular basis and supplemental lighting was provided with overhead metal halide 1000-Watt lamps as necessary. Plants were used for testing when they reached the first or second true leaf stage. A weighed amount, determined by the highest rate to be tested, of each test compound was placed in a 25 mL glass vial and was dissolved in 4 mL of a 97:3 v/v mixture of acetone and DMSO to obtain concentrated stock solutions. […] The concentrated stock solutions obtained were diluted with 20 mL of an aqueous mixture containing acetone, water, isopropyl alcohol, DMSO, […] crop oil concentrate, and X-77 surfactant in a 48.5:39:10:1.5:1.0:0.02 v/v ratio to obtain spray solutions containing the application rate. Compound requirements are based upon a 12 mL application volume at a rate of 187 liters per hectare (L/ha). Formulated compounds were applied to the plant material with an overhead Mandel track sprayer equipped with […] nozzles calibrated to deliver 187 L/ha over an application area of 0.64 square meters at a spray height of 18 inches (43 cm) above the average plant canopy height. Control plants were sprayed in the same manner with the solvent blank. The treated plants and control plants were placed in a greenhouse as described above and watered by subirrigation to prevent wash-off of the test compounds. After 14 d, the condition of the test plants as compared with that of the nontreated and control plants was determined visually and scored on a scale of 0 to 100 percent where 0 corresponds to no injury and 100 corresponds to complete control. In the reporting of the results, Table A: Percent Growth Reduction Conversion Table was used.

[1] = ECHCG: barnyardgrass (Echinochloa crus-galli), 14 days after application, read-out: Visual Growth Reduction (%) 14 Days After Application, ECHCG
[2] = IPOHE: ivy-leaf morning glory (Ipomoea hederacea), 14 days after application, read-out: Visual Growth Reduction (%) 14 Days After Application, IPOHE
[3] = KCHSC: kochia (Bassia scoparia), 14 days after application, read-out: Visual Growth Reduction (%) 14 Days After Application, KCHSC
[4] = ORYSA: rice (Oryza sativa), 14 days after application, read-out: Visual Growth Reduction (%) 14 Days After Application, ORYSA
[5] = SETFA: giant foxtail (Setaria faberi), 14 days after application, read-out: Visual Growth Reduction (%) 14 Days After Application, SETFA
[6] = SORVU: grain sorghum (Sorghum vulgare), 14 days after application, read-out: Visual Growth Reduction (%) 14 Days After Application, SORVU
[7] = STEME: common chickweed (Stellaria media), 14 days after application, read-out: Visual Growth Reduction (%) 14 Days After Application, STEME
[8] = TRZAS: wheat, spring (Triticum aestivum), 14 days after application, read-out: Visual Growth Reduction (%) 14 Days After Application, TRZAS
[9] = blackgrass (Alopecurus myosuroides), 14 Days After Application, read-out: Visual Growth Reduction (%) ALOMY
[10] = canada thistle (Cirsium arvense), 14 Days After Application, read-out: Visual Growth Reduction (%) CIRAR
[11] = crabgrass (Digitaria sanguinalis), 14 Days After Application, read-out: Visual Growth Reduction (%) DIGSA
[12] = lambsquarters (Chenopodium album), 14 Days After Application, read-out: Visual Growth Reduction (%) CHEAL
[13] = redroot pigweed (Amaranthus retroflexus), 14 Days After Application, read-out: Visual Growth Reduction (%) AMARE
[14] = wild oat (Avena fatua), 14 Days After Application, read-out: Visual Growth Reduction (%) AVEFA
[15] = yellow nutsedge (Cyperus esculentus), 14 Days After Application, read-out: Visual Growth Reduction (%) CYPES
[16] = ALOMY: blackgrass (Alopecurus myosuroides), 14 days after application, read-out: Visual Growth Reduction (%) 14 Days After Application, ALOMY
[17] = AMARE: redroot pigweed (Amaranthus retroflexus), 14 days after application, read-out: Visual Growth Reduction (%) 14 Days After Application, AMARE
[18] = AVEFA: wild oat (Avena fatua), 14 days after application, read-out: Visual Growth Reduction (%) 14 Days After Application, AVEFA
[19] = CHEAL: lambsquarters (Chenopodium album), 14 days after application, read-out: Visual Growth Reduction (%) 14 Days After Application, CHEAL
[20] = CIRAR: canada thistle (Cirsium arvense), 14 days after application, read-out: Visual Growth Reduction (%) 14 Days After Application, CIRAR
[21] = CYPES: yellow nutsedge (Cyperus esculentus), 14 days after application, read-out: Visual Growth Reduction (%) 14 Days After Application, CYPES
[22] = DIGSA: crabgrass (Digitaria sanguinalis), 14 days after application, read-out: Visual Growth Reduction (%) 14 Days After Application, DIGSA

COC(=O)c1nc(-c2ccc(C(F)(F)F)c(N)c2Cl)ccc1Cl [F212, Methyl 6-(3-amino-2-chloro-4-(trifluoromethyl)phenyl)-3-chloropicolinate]
pest or weed control at 140 g/ha [1]: 75 to 84%
pest or weed control at 140 g/ha [2]: 95 to 100%
pest or weed control at 140 g/ha [3]: 60 to 74%
pest or weed control at 140 g/ha [4]: 0 to 29%
pest or weed control at 140 g/ha [5]: 60 to 74%
pest or weed control at 140 g/ha [6]: 60 to 74%
pest or weed control at 140 g/ha [7]: 0 to 29%
pest or weed control at 140 g/ha [8]: 0 to 29%
pest or weed control at 140 g/ha [9]: 0 to 29%
pest or weed control at 140 g/ha [10]: 85 to 94%
pest or weed control at 140 g/ha [11]: 30 to 44%
pest or weed control at 140 g/ha [12]: 95 to 100%
pest or weed control at 140 g/ha [13]: 60 to 74%
pest or weed control at 140 g/ha [14]: 0 to 29%
pest or weed control at 140 g/ha [15]: 0 to 29%

COc1cc(-c2ccc(Cl)c(C(=O)O)n2)ccc1C(F)(F)F [F317, 3-Chloro-6-(3-methoxy-4-(trifluoromethyl)phenyl)picolinic acid]
pest or weed control at 140 g/ha [1]: 0 to 29%
pest or weed control at 140 g/ha [2]: 60 to 74%
pest or weed control at 140 g/ha [3]: 0 to 29%
pest or weed control at 140 g/ha [4]: 0 to 29%
pest or weed control at 140 g/ha [5]: 0 to 29%
pest or weed control at 140 g/ha [6]: 0 to 29%
pest or weed control at 140 g/ha [7]: 0 to 29%
pest or weed control at 140 g/ha [8]: 0 to 29%
pest or weed control at 140 g/ha [9]: 0 to 29%
pest or weed control at 140 g/ha [10]: 0 to 29%
pest or weed control at 140 g/ha [11]: 0 to 29%
pest or weed control at 140 g/ha [12]: 0 to 29%
pest or weed control at 140 g/ha [13]: 0 to 29%
pest or weed control at 140 g/ha [14]: 0 to 29%
pest or weed control at 140 g/ha [15]: 0 to 29%

COC(=O)c1nc(-c2ccc(Oc3ccc(F)cc3)cc2Cl)ccc1Cl [F123, Methyl 3-chloro-6-(2-chloro-4-(4-fluorophe)phenyl) picolinate]
pest or weed control at 140 g/ha [16]: 0 to 29%
pest or weed control at 140 g/ha [17]: 0 to 29%
pest or weed control at 140 g/ha [18]: 0 to 29%
pest or weed control at 140 g/ha [19]: 0 to 29%
pest or weed control at 140 g/ha [20]: 0 to 29%
pest or weed control at 140 g/ha [21]: 0 to 29%
pest or weed control at 140 g/ha [22]: 0 to 29%
pest or weed control at 140 g/ha [1]: 0 to 29%
pest or weed control at 140 g/ha [2]: 30 to 44%
pest or weed control at 140 g/ha [3]: 0 to 29%
pest or weed control at 140 g/ha [4]: 0 to 29%
pest or weed control at 140 g/ha [5]: 0 to 29%
pest or weed control at 140 g/ha [6]: 0 to 29%
pest or weed control at 140 g/ha [7]: 0 to 29%
pest or weed control at 140 g/ha [8]: 0 to 29%

COC(=O)c1nc(-c2cc3ncsc3cc2F)c(F)cc1Cl [F265, Methyl 3-chloro-5-fluoro-6-(6-fluorobenzo[d]thiazol-5-yl)picolinate]
pest or weed control at 140 g/ha [1]: 0 to 29%
pest or weed control at 140 g/ha [2]: 0 to 29%
pest or weed control at 140 g/ha [3]: 0 to 29%
pest or weed control at 140 g/ha [4]: 0 to 29%
pest or weed control at 140 g/ha [5]: 0 to 29%
pest or weed control at 140 g/ha [6]: 0 to 29%
pest or weed control at 140 g/ha [7]: 0 to 29%
pest or weed control at 140 g/ha [8]: 0 to 29%
pest or weed control at 140 g/ha [9]: 0 to 29%
pest or weed control at 140 g/ha [10]: 0 to 29%
pest or weed control at 140 g/ha [11]: 0 to 29%
pest or weed control at 140 g/ha [12]: 75 to 84%
pest or weed control at 140 g/ha [13]: 0 to 29%
pest or weed control at 140 g/ha [14]: 0 to 29%
pest or weed control at 140 g/ha [15]: 0 to 29%

Cc1cc(-c2ccc(Cl)c(C(=O)O)n2)ccc1C(F)(F)F [F316, 3-Chloro-6-(3-methyl-4-(trifluoromethyl)phenyl) picolinic acid]
pest or weed control at 140 g/ha [1]: 0 to 29%
pest or weed control at 140 g/ha [2]: 60 to 74%
pest or weed control at 140 g/ha [3]: 0 to 29%
pest or weed control at 140 g/ha [4]: 0 to 29%
pest or weed control at 140 g/ha [5]: 0 to 29%
pest or weed control at 140 g/ha [6]: 0 to 29%
pest or weed control at 140 g/ha [7]: 0 to 29%
pest or weed control at 140 g/ha [8]: 0 to 29%
pest or weed control at 140 g/ha [9]: 0 to 29%
pest or weed control at 140 g/ha [10]: 30 to 44%
pest or weed control at 140 g/ha [11]: 0 to 29%
pest or weed control at 140 g/ha [12]: 30 to 44%
pest or weed control at 140 g/ha [13]: 0 to 29%
pest or weed control at 140 g/ha [14]: 0 to 29%
pest or weed control at 140 g/ha [15]: 0 to 29%

COC(=O)c1nc(-c2ccc(Cl)c3c2OC(F)(F)O3)ccc1Cl [F68, Methyl 3-chloro-6-(7-chloro-2,2-difluorobenzo[d] [1,3]dioxol-4-yl)picolinate]
pest or weed control at 140 g/ha [16]: 0 to 29%
pest or weed control at 140 g/ha [17]: 0 to 29%
pest or weed control at 140 g/ha [18]: 0 to 29%
pest or weed control at 140 g/ha [19]: 0 to 29%
pest or weed control at 140 g/ha [20]: 0 to 29%
pest or weed control at 140 g/ha [22]: 0 to 29%
pest or weed control at 140 g/ha [1]: 0 to 29%
pest or weed control at 140 g/ha [2]: 0 to 29%
pest or weed control at 140 g/ha [3]: 0 to 29%
pest or weed control at 140 g/ha [4]: 0 to 29%
pest or weed control at 140 g/ha [5]: 0 to 29%
pest or weed control at 140 g/ha [6]: 0 to 29%
pest or weed control at 140 g/ha [7]: 0 to 29%

COC(=O)c1nc(-c2cc(Cl)c(C#N)cc2Cl)ccc1Cl [F50, Methyl 3-chloro-6-(2,5-dichloro-4-cyanophenyl) picolinate]
pest or weed control at 140 g/ha [16]: 0 to 29%
pest or weed control at 140 g/ha [17]: 0 to 29%
pest or weed control at 140 g/ha [18]: 0 to 29%
pest or weed control at 140 g/ha [19]: 60 to 74%
pest or weed control at 140 g/ha [20]: 0 to 29%
pest or weed control at 140 g/ha [21]: 0 to 29%
pest or weed control at 140 g/ha [22]: 0 to 29%
pest or weed control at 140 g/ha [1]: 0 to 29%
pest or weed control at 140 g/ha [3]: 0 to 29%
pest or weed control at 140 g/ha [4]: 0 to 29%
pest or weed control at 140 g/ha [5]: 0 to 29%
pest or weed control at 140 g/ha [6]: 0 to 29%
pest or weed control at 140 g/ha [7]: 0 to 29%
pest or weed control at 140 g/ha [8]: 0 to 29%

COC(=O)c1nc(-c2ccc(Cl)nc2Cl)ccc1Cl [F284, Methyl 2′,5,6′-trichloro-[2,3′-bipyridine]-6-carboxylate]
pest or weed control at 140 g/ha [1]: 0 to 29%
pest or weed control at 140 g/ha [2]: 60 to 74%
pest or weed control at 140 g/ha [3]: 0 to 29%
pest or weed control at 140 g/ha [4]: 0 to 29%
pest or weed control at 140 g/ha [5]: 0 to 29%
pest or weed control at 140 g/ha [6]: 85 to 94%
pest or weed control at 140 g/ha [7]: 0 to 29%
pest or weed control at 140 g/ha [8]: 0 to 29%
pest or weed control at 140 g/ha [9]: 0 to 29%
pest or weed control at 140 g/ha [10]: 30 to 44%
pest or weed control at 140 g/ha [11]: 0 to 29%
pest or weed control at 140 g/ha [12]: 0 to 29%
pest or weed control at 140 g/ha [13]: 0 to 29%
pest or weed control at 140 g/ha [14]: 0 to 29%
pest or weed control at 140 g/ha [15]: 0 to 29%
